The values that follow come from publication PMC10269895 (Microbiology Spectrum, 2023).

In this series the test system is HepG2 cells. Kind of series: Cytotoxicity (CellTiter-Glo ATP and neutral red uptake). The conditions noted are these: 24 h; highest concentration with cell viability of >80%. It counts as cell-based, human. The procedure:
The toxicity of GE81112A toward human hepatocellular carcinoma HepG2 HB-8065 (ATCC) cells and freshly isolated primary Sprague-Dawley rat hepatocytes (Charles River) was assessed by using the CellTiter-Glo ATP-monitoring kit (Promega) and by quantifying the ability to store the dye neutral red (neutral red uptake [NRU] solution; Sigma-Aldrich, St. Louis, MO, USA). The assay was conducted in 96-well microtiter plates in a test volume of 200 μL. GE81112A was tested in an 8-fold 1:2 dilution series with a final concentration range of […]. HepG2 cells or primary hepatocytes were maintained at 37°C in 5% CO2 in DMEM-F-12 medium containing 1% nonessential amino acids, 1% sodium pyruvate, and 10% heat-inactivated FCS. Prior to each test, 100 μL of culture medium was added to each well (each containing about 20,000 cells), and the plates were incubated for 16 h as described above. GE81112A was diluted in culture medium to obtain appropriate concentrations and was added to the wells as six replicates. […] After incubation for 24 h as described above, cell viability was calculated either by cell lysis and subsequent luminometric quantification of the ATP concentration in each sample or by measurement of the amount of neutral red taken up by the cells. NRU was measured at 540 nm (Tecan Genios Pro) after 3 h of incubation with NRU solution and subsequent cell lysis. […]

On to `NC(=O)OC[C@@H](O)C[C@H](NC(=O)[C@H]1NCCC[C@H]1O)C(=O)N[C@@H](Cc1c[nH]cn1)C(=O)N[C@H](C(=O)O)[C@H](O)c1cnc(Cl)[nH]1` [GE81112A], for which the “No observed effect concentration (NOEC)” value came to 15.6 µM.
